Measured values reported in patent publication US7211116B2, “Hair dye composition” (Kao Corporation, priority 2001, dated 2007).

Experiment: Measurement of hydrogen peroxide remaining ratio in a virtual hair bleach composition (Cu, ammonia, H2O2; iodometric titration)
Details: 20.0 mg compound, aqueous Cu solution, stirred 10 minutes at 30° C.
Description: The first requirement is a remaining ratio of hydrogen peroxide. The remaining ratio of hydrogen peroxide is determined by measuring the remaining amount of hydrogen peroxide in a virtual hair bleach composition after a predetermined time. The remaining ratio exceeding a predetermined value allows existence of hydrogen peroxide which can be used for hair bleaching or dyeing and promotes the hair bleaching action. The remaining ratio below a predetermined value, on the other hand, prevents excessive stabilization of hydrogen peroxide, whereby the oxidizing agent acts to emit adequate —O2H (perhydroxy anion).
The hydrogen peroxide remaining ratio in the present invention is measured in the following manner. Measurement of hydrogen peroxide remaining ratio %: In a 50 mL screw tube are charged 20.0 mg of Compound (A) and 5.98 g of deionized water to dissolve the former in the latter. […] The point when a violet color (bluish violet to reddish violet) disappears completely is designated as a terminal point and hydrogen peroxide % is determined in accordance with the below-described equation. The amount of hydrogen peroxide in an aqueous solution obtained by diluting 10.00 of 2% aqueous hydrogen peroxide with 10.00 g of deionized water is also measured and the hydrogen peroxide amount at this time is taken as a hydrogen peroxide remaining ratio of 100%.

NCCCN [1,3-Propanediamine]
Hydrogen peroxide remaining ratio: 19.3%
